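Briefly, cells in 96-well plates were exposed to five compound concentrations for 48 h, and endpoints were estimated by linear interpolation. Definition used: TGI = concentration required for complete inhibition of growth.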
Key:
Test in all cases: DTP human tumour cell line panel, 48 h
[1] = tested on: SK-MEL-28 melanoma
[2] = tested on: UACC-62 melanoma
[3] = tested on: OVCAR-4 ovarian
[4] = tested on: SF-268 CNS
[5] = tested on: RPMI-8226 leukemia
[6] = tested on: SF-295 CNS
[7] = tested on: LXFL 529 NSCLC
[8] = tested on: M19-MEL melanoma
[9] = tested on: ACHN renal
[10] = tested on: OVCAR-3 ovarian
[11] = tested on: NCI-H23 lung
[12] = tested on: M14 melanoma
[13] = tested on: NCI-H460 lung
[14] = tested on: NCI-H226 lung
[15] = tested on: UO-31 renal
[16] = tested on: HOP-62 NSCLC
[17] = tested on: DMS 114 small cell lung
[18] = tested on: K-562 leukemia
[19] = tested on: EKVX NSCLC
[20] = tested on: A498 renal
[21] = tested on: SF-539 CNS
[22] = tested on: SNB-78 CNS
[23] = tested on: MALME-3M melanoma
[24] = tested on: LOX IMVI melanoma
[25] = tested on: HT29 colon
[26] = tested on: KM20L2 colon
[27] = tested on: DLD-1 colon
[28] = tested on: SNB-19 CNS
[29] = tested on: HCC-2998 colon
[30] = tested on: SR leukemia
[31] = tested on: SW-620 colon
[32] = tested on: HL-60(TB) leukemia
[33] = tested on: A549 NSCLC
[34] = tested on: COLO 205 colon
[35] = tested on: SNB-75 CNS
[36] = tested on: IGROV1 ovarian
[37] = tested on: TK-10 renal
[38] = tested on: HOP-18 NSCLC
[39] = tested on: CAKI-1 renal
[40] = tested on: UACC-257 melanoma
[41] = tested on: 786-0 renal
[42] = tested on: HCT-15 colon
[43] = tested on: HCT-116 colon
[44] = tested on: OVCAR-8 ovarian
[45] = tested on: OVCAR-5 ovarian
[46] = tested on: HOP-92 NSCLC
[47] = tested on: SN12C renal
[48] = tested on: CCRF-CEM leukemia
[49] = tested on: RXF-631 renal
[50] = tested on: MOLT-4 leukemia
[51] = tested on: SK-MEL-5 melanoma
[52] = tested on: RXF 393 renal
[53] = tested on: DMS 273 small cell lung
[54] = tested on: NCI-H522 lung
[55] = tested on: KM12 colon
[56] = tested on: SK-OV-3 ovarian
[57] = tested on: U251 CNS
[58] = tested on: SK-MEL-2 melanoma
[59] = tested on: XF 498 CNS

N#CCN1CCOCCOCCN(CC#N)CCOCCOCC1
TGI [1]: > 100 µM | TGI [2]: > 100 µM | TGI [3]: > 100 µM | TGI [4]: > 100 µM | TGI [5]: > 100 µM | TGI [6]: > 100 µM | TGI [7]: > 100 µM | TGI [8]: > 100 µM | TGI [9]: > 100 µM | TGI [10]: > 100 µM | TGI [11]: > 100 µM | TGI [12]: > 100 µM | TGI [13]: > 100 µM | TGI [14]: > 100 µM | TGI [15]: > 100 µM | TGI [16]: > 100 µM | TGI [17]: > 100 µM | TGI [18]: > 100 µM | TGI [19]: > 100 µM | TGI [20]: > 100 µM | TGI [21]: > 100 µM | TGI [22]: > 100 µM | TGI [23]: > 100 µM | TGI [24]: > 100 µM | TGI [25]: > 100 µM | TGI [26]: > 100 µM | TGI [27]: > 100 µM | TGI [28]: > 100 µM | TGI [29]: > 100 µM | TGI [30]: > 100 µM | TGI [31]: > 100 µM | TGI [32]: > 100 µM | TGI [33]: > 100 µM | TGI [34]: > 100 µM | TGI [35]: > 100 µM | TGI [36]: > 100 µM | TGI [37]: > 100 µM | TGI [38]: > 100 µM | TGI [39]: > 100 µM | TGI [40]: > 100 µM | TGI [41]: > 100 µM | TGI [42]: > 100 µM | TGI [43]: > 100 µM | TGI [44]: > 100 µM | TGI [45]: > 100 µM | TGI [46]: > 100 µM | TGI [47]: > 100 µM | TGI [48]: > 100 µM | TGI [49]: > 100 µM | TGI [50]: > 100 µM | TGI [51]: > 100 µM | TGI [52]: > 100 µM

O=P(O)(O)C1CCCC(P(=O)(O)O)N1 (stereo unspecified)
TGI [1]: > 100 µM | TGI [53]: > 100 µM | TGI [54]: > 100 µM | TGI [4]: > 100 µM | TGI [6]: > 100 µM | TGI [8]: > 100 µM | TGI [9]: > 100 µM | TGI [11]: > 100 µM | TGI [12]: > 100 µM | TGI [13]: > 100 µM | TGI [14]: > 100 µM | TGI [15]: > 100 µM | TGI [16]: > 100 µM | TGI [17]: > 100 µM | TGI [19]: > 100 µM | TGI [20]: > 100 µM | TGI [22]: > 100 µM | TGI [55]: > 100 µM | TGI [25]: > 100 µM | TGI [26]: > 100 µM | TGI [28]: > 100 µM | TGI [30]: > 100 µM | TGI [32]: > 100 µM | TGI [33]: > 100 µM | TGI [36]: > 100 µM | TGI [37]: > 100 µM | TGI [40]: > 100 µM | TGI [56]: > 100 µM | TGI [43]: > 100 µM | TGI [57]: > 100 µM | TGI [44]: > 100 µM | TGI [45]: > 100 µM | TGI [46]: > 100 µM | TGI [48]: > 100 µM | TGI [49]: > 100 µM | TGI [50]: > 100 µM | TGI [52]: > 100 µM

C[n+]1ccc(-c2cc[n+](C)cc2)cc1
TGI [1]: > 100 µM | TGI [53]: > 38.5 µM | TGI [54]: > 34.2 µM | TGI [3]: 3.21 µM | TGI [4]: > 100 µM | TGI [5]: > 100 µM | TGI [6]: > 37.6 µM | TGI [7]: > 53.3 µM | TGI [8]: > 21.6 µM | TGI [9]: > 100 µM | TGI [10]: > 46.6 µM | TGI [11]: > 29.3 µM | TGI [12]: > 35.9 µM | TGI [13]: > 33.5 µM | TGI [14]: 43.1 µM | TGI [15]: > 100 µM | TGI [16]: 66.5 µM | TGI [17]: > 24.7 µM | TGI [18]: > 100 µM | TGI [19]: > 60.2 µM | TGI [20]: > 50.3 µM | TGI [21]: > 46.4 µM | TGI [22]: > 58.4 µM | TGI [23]: 0.981 µM | TGI [55]: > 92.4 µM | TGI [24]: > 48.1 µM | TGI [25]: > 81.9 µM | TGI [26]: > 100 µM | TGI [27]: > 47.2 µM | TGI [58]: 13.1 µM | TGI [28]: > 100 µM | TGI [29]: 97.8 µM | TGI [30]: > 31.6 µM | TGI [31]: > 100 µM | TGI [32]: 24.8 µM | TGI [33]: > 95 µM | TGI [34]: > 38.3 µM | TGI [35]: 99.8 µM | TGI [36]: > 38.1 µM | TGI [37]: > 100 µM | TGI [38]: > 100 µM | TGI [39]: > 100 µM | TGI [40]: 3.09 µM | TGI [56]: > 100 µM | TGI [41]: > 100 µM | TGI [59]: 17 µM | TGI [42]: > 52.3 µM | TGI [43]: > 44.5 µM | TGI [57]: > 70.9 µM | TGI [44]: > 100 µM | TGI [45]: 37.9 µM | TGI [46]: > 63.6 µM | TGI [47]: 30.3 µM | TGI [48]: > 100 µM | TGI [50]: > 100 µM | TGI [51]: > 35.6 µM | TGI [52]: 3.93 µM
